According to ChEMBL document CHEMBL4364252, “Tetrahydropyrazolo[1,5-a]pyridine-fused steroids and their in vitro biological evaluation in prostate cancer” (2019):
Calls of active or inactive are those of the source. The rule behind the calls is not given here.

How the values were obtained:
[1] = target: T1, Androgen receptor (Homo sapiens) (UniProt P10275); details: at 10 µM
T1 sequence (whole entry): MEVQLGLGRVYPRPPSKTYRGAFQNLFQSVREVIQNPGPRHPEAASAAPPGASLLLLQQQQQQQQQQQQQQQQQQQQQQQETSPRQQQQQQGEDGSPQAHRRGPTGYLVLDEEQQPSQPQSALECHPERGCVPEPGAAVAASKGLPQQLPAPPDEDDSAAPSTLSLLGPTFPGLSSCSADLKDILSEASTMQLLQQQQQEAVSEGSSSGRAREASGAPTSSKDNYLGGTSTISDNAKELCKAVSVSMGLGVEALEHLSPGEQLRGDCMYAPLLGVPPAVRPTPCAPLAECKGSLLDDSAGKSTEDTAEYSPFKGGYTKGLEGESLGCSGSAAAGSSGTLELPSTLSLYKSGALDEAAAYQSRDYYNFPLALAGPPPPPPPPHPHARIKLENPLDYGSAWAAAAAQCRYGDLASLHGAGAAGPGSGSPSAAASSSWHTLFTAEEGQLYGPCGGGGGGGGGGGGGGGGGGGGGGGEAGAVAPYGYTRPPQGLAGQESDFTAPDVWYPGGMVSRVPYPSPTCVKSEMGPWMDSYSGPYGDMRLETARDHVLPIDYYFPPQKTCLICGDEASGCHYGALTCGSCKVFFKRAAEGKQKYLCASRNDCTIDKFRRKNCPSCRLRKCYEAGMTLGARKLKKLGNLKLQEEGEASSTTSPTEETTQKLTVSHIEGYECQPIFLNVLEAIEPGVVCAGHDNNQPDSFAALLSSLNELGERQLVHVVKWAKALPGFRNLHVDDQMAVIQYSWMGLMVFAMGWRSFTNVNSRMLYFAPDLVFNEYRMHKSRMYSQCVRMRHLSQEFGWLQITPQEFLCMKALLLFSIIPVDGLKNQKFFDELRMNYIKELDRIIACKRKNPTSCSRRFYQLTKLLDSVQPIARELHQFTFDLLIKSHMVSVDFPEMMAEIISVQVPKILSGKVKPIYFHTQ
Description: Inhibition of R1881 induced-AR transcriptional activity in AR-positive human 22Rv1 cells harboring ARE14 construct at 10 uM after 24 hrs by luciferase assay

PC-3 [2] = assay: Antiproliferative activity against AR-negative human PC3 cells assessed as cell viability at 40 uM measured after 72 hrs by resazurin dye based fluorescence assay relative to control; type: functional; details: PC-3, 72 h, read-out: Activity
CWR22R [3] = assay: Antiproliferative activity against human AR-positive 22Rv1 cells harboring ARE14 construct assessed as growth inhibition measured after 72 hrs by resazurin dye based fluorescence assay; type: functional; details: 22Rv1, 72 h
VCaP [4] = assay: Antiproliferative activity against AR-positive human VCaP cells assessed as cell viability at 40 uM measured after 72 hrs by resazurin dye based fluorescence assay relative to control; type: functional; details: read-out: Activity
PC-3 [5] = assay: Antiproliferative activity against AR-negative human PC3 cells assessed as growth inhibition measured after 72 hrs by resazurin dye based fluorescence assay; type: functional; details: PC-3, 72 h
[6] = target: T1, Androgen receptor (Homo sapiens); details: at 10 µM; remark: listed apart in the source
Description: Inhibition of AR transcriptional activity in AR-positive human 22Rv1 cells harboring ARE14 construct assessed as suppression of NKX3.1 expression at 10 uM after 24 hrs by immunoblot analysis

CWR22R [7] = assay: Antiproliferative activity against AR-positive human 22Rv1 cells harboring ARE14 construct assessed as cell viability at 40 uM measured after 72 hrs by resazurin dye based fluorescence assay relative to control; type: functional; details: 22Rv1, 72 h, read-out: Activity
CWR22R [8] = assay: Effect on AR-V7 variant protein expression in AR-positive human 22Rv1 cells harboring ARE14 construct at 10 uM after 24 hrs by immunoblot analysis; type: functional, cell-based
[9] = target: T1, Androgen receptor (Homo sapiens); details: at 10 µM; remark: listed apart in the source
Description: Inhibition of AR transcriptional activity in AR-positive human 22Rv1 cells harboring ARE14 construct assessed as suppression of PSA expression at 10 uM after 24 hrs by immunoblot analysis

VCaP [10] = assay: Antiproliferative activity against AR-positive human VCaP cells assessed as growth inhibition measured after 72 hrs by resazurin dye based fluorescence assay; type: functional
LNCaP [11] = assay: Antiproliferative activity against AR-positive human LNCAP cells assessed as growth inhibition measured after 72 hrs by resazurin dye based fluorescence assay; type: functional
LAPC4 [12] = assay: Antiproliferative activity against AR-positive human LAPC4 cells assessed as cell viability at 40 uM measured after 72 hrs by resazurin dye based fluorescence assay relative to control; type: functional; details: LAPC4, 72 h, read-out: Activity
LAPC4 [13] = assay: Antiproliferative activity against AR-positive human LAPC4 cells assessed as growth inhibition measured after 72 hrs by resazurin dye based fluorescence assay; type: functional; details: LAPC4, 72 h
LNCaP [14] = assay: Antiproliferative activity against AR-positive human LNCAP cells assessed as cell viability at 40 uM measured after 72 hrs by resazurin dye based fluorescence assay relative to control; type: functional; details: read-out: Activity

Structure (SMILES) | inhibition [1] | viability at 40 µM (PC-3 [2]) | GI50 (CWR22R [3]) | viability at 40 µM (VCaP [4]) | GI50 (PC-3 [5]) | inhibition [6] | viability at 40 µM (CWR22R [7]) | Activity (CWR22R [8]) | inhibition [9] | GI50 (VCaP [10]) | GI50 (LNCaP [11]) | viability at 40 µM (LAPC4 [12]) | GI50 (LAPC4 [13]) | viability at 40 µM (LNCaP [14])
CC(=O)[C@@]12Cc3c(C(=O)O)cnn3C[C@@H]1C[C@H]1[C@@H]3CCC4=CC(=O)CC[C@]4(C)[C@H]3CC[C@@]12C | inactive | > 100% | > 40 µM | 95.7% | > 40 µM | inactive | 92.4% | inactive | inactive | > 40 µM | – | – | – | –
C[C@@H](O)[C@@]12Cc3c(CO)c(CO)nn3C[C@@H]1C[C@H]1[C@@H]3CC=C4C[C@@H](O)CC[C@]4(C)[C@H]3CC[C@@]12C | inactive | > 100% | > 40 µM | 96.3% | > 40 µM | Active | 95.8% | inactive | inactive | > 40 µM | > 40 µM | 97.5% | > 40 µM | 92.8%
COC(=O)c1nn2c(c1C(=O)OC)C[C@]1(C(C)=O)[C@@H](C[C@H]3[C@@H]4CC=C5C[C@@H](OC(C)=O)CC[C@]5(C)[C@H]4CC[C@@]31C)[C@H]2Cc1ccccc1 | inactive | > 100% | > 40 µM | 85.9% | > 40 µM | inactive | 15% | inactive | inactive | > 40 µM | > 40 µM | > 100% | > 40 µM | 89.7%
COC(=O)c1nn2c(c1C(=O)OC)C[C@]1(C(C)=O)[C@@H](C[C@H]3[C@@H]4CCC5=CC(=O)CC[C@]5(C)[C@H]4CC[C@@]31C)C2 | inactive | 94% | > 40 µM | 80.3% | > 40 µM | Active | 73.5% | inactive | inactive | > 40 µM | – | – | – | –
COC(=O)c1cnn2c1C[C@]1(C(C)=O)[C@@H](C[C@H]3[C@@H]4CC=C5C[C@@H](OC(C)=O)CC[C@]5(C)[C@H]4CC[C@@]31C)C2 | inactive | > 100% | > 40 µM | 84.9% | > 40 µM | – | 83.3% | inactive | Active | > 40 µM | – | – | – | –
C[C@@H](O)[C@@]12Cc3c(CO)cnn3C[C@@H]1C[C@H]1[C@@H]3CC=C4C[C@@H](O)CC[C@]4(C)[C@H]3CC[C@@]12C | inactive | > 100% | > 40 µM | 96.7% | > 40 µM | – | 96.3% | inactive | – | > 40 µM | > 40 µM | 92.2% | > 40 µM | 82.8%
CNC(=O)c1ccc(N2C(=S)N(c3ccc(C#N)c(C(F)(F)F)c3)C(=O)C2(C)C)cc1F [ENZALUTAMIDE] | – | 88.7% | – | 61.2% | – | – | 84% | – | – | – | – | 80.3% | – | 94.2%
COC(=O)c1nn2c(c1C(=O)OC)C[C@]1(C(C)=O)[C@@H](C[C@H]3[C@@H]4CCC5=CC(=O)CC[C@]5(C)[C@H]4CC[C@@]31C)[C@H]2Cc1ccccc1 | inactive | > 100% | > 40 µM | 80.7% | > 40 µM | – | 63.3% | inactive | Active | > 40 µM | > 40 µM | 97.2% | > 40 µM | 80.6%
COC(=O)c1cnn2c1C[C@]1(C(C)=O)[C@@H](C[C@H]3[C@@H]4CC=C5C[C@@H](O)CC[C@]5(C)[C@H]4CC[C@@]31C)C2 | inactive | 89.6% | > 40 µM | 90.4% | > 40 µM | Active | 78.5% | inactive | Active | > 40 µM | – | – | – | –
COC(=O)c1nn2c(c1C(=O)OC)C[C@]1(C(C)=O)[C@@H](C[C@H]3[C@@H]4CC=C5C[C@@H](O)CC[C@]5(C)[C@H]4CC[C@@]31C)C2 | inactive | 71.7% | > 40 µM | > 100% | > 40 µM | inactive | 88% | inactive | inactive | > 40 µM | – | – | – | –
COC(=O)c1nn2c(c1C(=O)OC)C[C@]1(C(C)=O)[C@@H](C[C@H]3[C@@H]4CC=C5C[C@@H](O)CC[C@]5(C)[C@H]4CC[C@@]31C)[C@H]2Cc1ccccc1 | inactive | 64.7% | > 40 µM | 57% | > 40 µM | inactive | 28.4% | inactive | inactive | > 40 µM | > 40 µM | 81.3% | > 40 µM | 83.5%
C[C@@H](O)[C@@]12Cc3c(CO)c(CO)nn3[C@H](Cc3ccccc3)[C@@H]1C[C@H]1[C@@H]3CC=C4C[C@@H](O)CC[C@]4(C)[C@H]3CC[C@@]12C | inactive | > 100% | > 40 µM | 43% | > 40 µM | – | 55.8% | inactive | Active | > 40 µM | > 40 µM | 85.9% | > 40 µM | 89.7%
